Reference: patent US20080200568A1, “Genes Associated With Type ll Diabetes Mellitus” (priority 2005, published 2008)

Assays:
Format in all cases: in vivo
[1] = test system: male C57BL/6J mice fed a high fat Western Diet, with or without streptozotocin; experiment: Acute Glucose Lowering Study (tail-vein blood glucose over 5 hours after a single dose); conditions: for average change in blood glucose measurement: 100 mg/kg, N=10
Text: The studies reported below dosed male C57BL/6J mice with an EP3 antagonist, GW671021B, and monitored the effects on glucose homeostasis by measuring tail-vein blood glucose. The animals were either (a) fed a high fat diet to induce mild insulin resistance, or (b) were fed the high fat diet and also treated with a low dose of streptozotocin (which damages the pancreatic beta-cells) resulting in both insulin resistance and insulin deficiency (as in T2DM patients).
Materials and Methods: Male 6 week old C57BL/6J mice (Jackson Laboratory, Bar Harbor Me.) were made mildly insulin resistant by feeding a high fat Western Diet (WD) (Research Diets, D12079B) for 3 weeks. Test mice were then made insulin deficient by intraperitoneal injection (IP) with 100 mg/kg Streptozotocin (STZ or streptozocin; Zanosar®, Sicor Pharmaceuticals, Irvine, Calif.) reconstituted in citric acid. Control mice (also on the WD) were injected with the same volume and concentration of citric acid without the STZ. Two weeks after the STZ (or control citric acid) injections the mice received injections of either GW021 in vehicle, or vehicle alone (as described below). Student's t-test or Tukey's HSD (Honestly Significant Different) test was used to determine the significance of the results.
Acute Glucose Lowering Study: At 6:30 am mice were transferred to clean cages with water in the procedure room and allowed to acclimate for 1 hour. After acclimation, a small snip was made at the tip of the tail for blood collection and baseline glucose measurements were collected using the Bayer Elite XL glucometer. Mice were dosed with either compound GW671021B (100 mg/kg body weight) in a suspension in 0.5% HPMC, 0.1% Tween 80; or dosed with Vehicle only (HPMC, 0.1% Tween 80). Whole blood for glucose measurement was collected at 0.5, 1, 2, 3, 4, and 5 hours after dosing. […] There were 10 mice in each treatment group.
Data represent an average blood glucose measurement (mg/dL) of the 10 mice in each treatment group at each time point.

[2] = test system: C57BL/6J mice fed a high fat diet (Western Diet) and treated with streptozocin; experiment: 14 Day Chronic Study (glucose after 1st, 15th and 27th dose); conditions: 0, 7 and 13 days of treatment, twice daily dosing, compared to STZ treated mice without compound
Method: A 14 day chronic study in C57BL/6J mice was performed. The animals were fed a high fat diet (Western Diet) and treated with a low dose of streptozocin (which damages the pancreatic beta-cells) resulting in both insulin resistance and insulin deficiency (as in T2DM patients). Mice were prepared as generally described above in Example 2. Two weeks after injection of streptozocin, a twice daily dosing schedule was started with: • 1. GW67021B (10 mg/kg, 30 mg/kg, or 100 mg/kg); or • 2. CB-1 (Rimonabant, antagonist of the CB-1 receptor; commonly used as a positive control for weight-loss inducing drugs) at 5 mg/kg; or • 3. GW34784 (PPAR gamma agonist compound as another positive control) at 3 mg/kg (also referred to as GW845 or GW7845))
All compounds were dosed in suspension in 0.5% HPMC; 0.1% Tween 80 by body weight. The same general procedures used in the acute study (Example 2) were utilized in this chronic study. Glucose was measured following the 1st, 15th and 27th dose (day 0, 7, and 13) at 0, 1, 2, 3, 4, and 5 hour time points. Results are graphed in FIGS. 3a-3c for the groups of mice receiving WD+Streptozocin+Vehicle (no compound); WD+Streptozocin+GW021 10 mg/kg; WD+Streptozocin+GW021 30 mg/kg; WD+Streptozocin+GW021 100 mg/kg; WD+Streptozocin+GW845 3 mg/kg; WD+Streptozocin+CB-1 5 mg/kg.

[3] = test system: streptozocin-treated mice fed a high-fat Western Diet; experiment: Final Glucose Measurement on the 14th day (after 28th dose); conditions: compared to mice not treated with compound (FIG. 4)
Method: Groups of mice were maintained on diet and dosing schedules as described, and on the 14th day were moved to the procedure room, dosed with a final 28th dose (of compound or vehicle only, according to their group as shown in FIG. 4), then acclimated for about 1 hour with access to food and water before bleeding to measure blood glucose.
In FIG. 4 the first […] bars (from left to right) represent mice that were treated with STZ and vehicle only; STZ and GW021B 10 mg/kg; STZ and GW021 B 30 mg/kg; STZ and GW021 B 100 mg/kg; STZ and GW845 3 mg/kg. The seventh bar represents mice that were not treated with STZ (citric acid control) and were not treated with any compound (Vehicle only). “Vehicle” mice were dosed with HPMC/Tween only (no GW021, CB-1 or GW 845). Each bar represents an average of a single blood draw taken on day 14 from each of the ten mice in a group.

In the case of `COc1ccc(Br)cc1S(=O)(=O)[N-]C(=O)/C=C/c1ccccc1Cc1ccc2ccccc2c1.[Na+]` [GW021B], the “average change in blood glucose measurement” value (“average change” below) ([1]; WD + STZ mice, 0 hrs (baseline)) is reported as 0 mg/dL, the “average change” value ([1]; WD + STZ mice, 0.5 hrs after dosing) is reported as -16 mg/dL and the “average change” value ([1]; WD + STZ mice, 1 hr after dosing) is reported as -46 mg/dL. The “average change” value ([1]; WD + STZ mice, 2 hrs after dosing) was -59 mg/dL, the “average change” value ([1]; WD + STZ mice, 3 hrs after dosing) was -66 mg/dL and the “average change” value ([1]; WD + STZ mice, 4 hrs after dosing) was -83 mg/dL. The “average change” value ([1]; WD + STZ mice, 5 hrs after dosing) was -79 mg/dL, the “average change” value ([1]; WD + citric acid mice (no STZ), 0 hrs (baseline)) was 0 mg/dL and the “average change” value ([1]; WD + citric acid mice (no STZ), 0.5 hrs after dosing) was -14 mg/dL. The “average change” value ([1]; WD + citric acid mice (no STZ), 1 hr after dosing) was -14 mg/dL, the “average change” value ([1]; WD + citric acid mice (no STZ), 2 hrs after dosing) was -9 mg/dL and the “average change” value ([1]; WD + citric acid mice (no STZ), 3 hrs after dosing) was -18 mg/dL. The “average change” value ([1]; WD + citric acid mice (no STZ), 4 hrs after dosing) was -37 mg/dL, the “average change” value ([1]; WD + citric acid mice (no STZ), 5 hrs after dosing) was -37 mg/dL and the “effect on blood glucose (change compared to baseline), in words” value ([1]; streptozocin-treated C57BL/6J mice fed high-fat Western Diet, 5 hour time course) was “blood glucose lowering effect”. The “effect on glucose (change compared to baseline), in words” value [2] was “continued to have glucose lowering effects” and the “blood glucose level on the fourteenth day of treatment, in words” value [3] was “lower blood glucose levels”.
